Experimental data from PubChem BioAssay (NCI).
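48-hour exposure; five concentrations; linearly interpolated endpoints. At the TGI there is no net growth.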

Assays:
Experiment in all cases: NCI anticancer screen, dose series, 48 h
A498 renal = tested on: A498 renal
786-0 renal = tested on: 786-0 renal
A549 NSCLC = tested on: A549 NSCLC
SF-295 CNS = tested on: SF-295 CNS
HCC-2998 colon = tested on: HCC-2998 colon
UACC-62 melanoma = tested on: UACC-62 melanoma
U251 CNS = tested on: U251 CNS
MOLT-4 leukemia = tested on: MOLT-4 leukemia
OVCAR-5 ovarian = tested on: OVCAR-5 ovarian
SK-MEL-28 melanoma = tested on: SK-MEL-28 melanoma
MDA-MB-231 breast = tested on: MDA-MB-231 breast

Row | SMILES | TGI (A498 renal) | TGI (786-0 renal) | TGI (A549 NSCLC) | TGI (SF-295 CNS) | TGI (HCC-2998 colon) | TGI (UACC-62 melanoma) | TGI (U251 CNS) | TGI (MOLT-4 leukemia) | TGI (OVCAR-5 ovarian) | TGI (SK-MEL-28 melanoma) | TGI (MDA-MB-231 breast)
1 | Nc1cccc(S(=O)(=O)Nc2nnc(S(N)(=O)=O)s2)c1 | > 100 µM | > 100 µM | > 100 µM | > 100 µM | > 100 µM | > 100 µM | > 100 µM | > 100 µM | > 100 µM | > 100 µM | > 100 µM
2 | Cc1ccc(S(=O)(=O)[C@@H](Cl)[C@H]2N=C(Cl)NN=C2c2ccccc2)cc1 | 35.7 µM | 85 µM | > 100 µM | > 100 µM | > 100 µM | 44 µM | 55.9 µM | 83.1 µM | > 100 µM | 36.1 µM | 46.6 µM
3 | CS[C@]12[C@@H]3C(=O)N(C)C(=O)[C@@H]3[C@](C)(C(=O)N1C)C(=O)N2c1ccccc1 | > 100 µM | > 100 µM | > 100 µM | > 100 µM | > 100 µM | > 100 µM | > 100 µM | > 100 µM | > 100 µM | > 100 µM | > 100 µM
4 | O=C(O)CC[P+](c1ccccc1)(c1ccccc1)c1ccccc1 | > 100 µM | > 100 µM | > 100 µM | > 100 µM | > 100 µM | > 100 µM | > 100 µM | > 100 µM | > 100 µM | > 100 µM | > 100 µM
